Legend:
[1] = tested on: IL-6; test: IL-6 production by activated N9 microglia; type: cell-based, murine; conditions: microglia stimulated with LPS+IFN-γ for 24 hr, micromolar concentrations
Protocol: The N9 clone of murine microglial cells was obtained by immortalization of embryonic brain cultures with the 3RV retrovirus carrying an activated v-myconcogene. N9 cells were cultured in T-75-cm^2 culture flasks (Corning, Cambridge, Mass.) and maintained at 37° C. in a humidified incubator under 5% CO2 atmosphere in RPMI 1640 supplemented with 2 mM L-glutamine, 50 U/mL penicillin G, 50 μg/mL streptomycin sulfate (GIBCO-BBL, Paisley, UK), and 10% heat-inactivated fetal bovine serum (FBS, Hyclone Lab, Inc., Logan, Utah) until experiments were performed. Cells were used between the first and the tenth passage.
Sub-confluent microglial cells were washed twice with phosphate-buffered saline (PBS) and incubated with trypsin 0.025% and ethylenediaminetetraacetate (EDTA) 0.02% without calcium and magnesium for 3 min. at 37° C. to detach the cells from the culture flask. Cells were then resuspended in medium and incubated in 24-well tissue-culture plates at a concentration of 2×10^5 cells/mL for 16 h in a humidified incubator (37° C., 5% CO2). Growth medium was removed and cell monolayers were stimulated with 10 ng/mL lipopolysaccharide (LPS, from Escherichia coli 055:B5, Sigma Chemical Co., St. Louis, Mo.) plus 1 U/ml, murine IFN-γ (Sigma). To test effects of melanocortin peptides, concentrations (1, 10, 25, 50 and 100 μM) of α-MSH (1-13), α-MSH (11-13), and ACTH (1-24) (Sigma) were dissolved in medium and added to wells 10 min before treatment with LPS+IFN-γ. […] Viability of cells was assessed by trypan blue exclusion for each experimental condition; it was consistently >98%. […]
TNF-α bioactivity was measured in supernatants of cell cultures by standard cytotoxicity assay using L929 cells and recombinant human TNF-α (Sigma) as standard. […] IL-6 was measured using a commercial murine enzyme-linked immunosorbent assay (ELISA: RPN 2714, Amersham, Little Chalfont, UK).
Effects of melanocortin peptides on cytokine and NO production were evaluated by repeated measures analysis of variance followed by Dunnet's test for specific comparisons. […]

[2] = tested on: TNF-α and iNOS mRNA; test: Northern blot of TNF-α and iNOS mRNA in activated microglia; type: cell-based, murine
Protocol: Total cellular RNA was extracted from 10^6 adherent microglial cells plated in six-well tissue culture plates (Corning). Electrophoresis of RNA samples (10 μg/lane) was performed in 1% agarose/2.2 M formaldehyde gels and the gels subsequently blotted onto nylon filters by capillary action and baked for 2 h before prehybridization. The cDNA fragments encoding murine TNF-α and mouse macrophage iNOS were ^32P-labeled using the Ready-To-Go DNA Labeling Kit (Pharmacia, Uppsala, Sweden) before hybridization of nylon filters and autoradiography. Blots were subsequently rehybridized with human glyceraldehyde-3-phosphate dehydrogenase (G-3-PDH) cDNA probe as an internal control (Clontech Laboratories, Inc., Palo Alto, Calif.).

[3] = tested on: human neutrophils; test: C. albicans killing by human neutrophils; type: cell-based; conditions: 2 hours at 37° C., vs. medium
Protocol: Venous blood (20 ml) from healthy volunteers was anticoagulated with heparin. Neutrophils were isolated using dextran sedimentation and Ficoll-Hypaque (Sigma Chemical Co., St. Louis, Mi., USA) centrifugation. Erythrocytes were lysed via hypotonic shock. Neutrophils represented at least 97% of the cell suspension. Cell viability, estimated by trypan blue exclusion, was >98%. Neutrophils were suspended to a final concentration in HBSS. C. albicans (1×10^6) were opsonized with human AB serum in a shaking water bath for 30 minutes at 37° C. Organisms were then incubated with neutrophils in medium or in medium with α-MSH (1-13) or α-MSH (11-13) in concentrations of 10^−15 M to 10^−4 M in a shaking water bath for 2 hours at 37° C. After incubation, the culture tubes were placed on ice to stop growth and extracellular organisms were washed twice with centrifugation at 1000×g at 4° C. A 2.5% sodium desoxycholoate solution was added to obtain a suspension of 10^6 cells/ml. Two 1/100 serial dilutions in HBSS were made to obtain a final suspension of 100 cells/ml. Aliquots of 1 ml were dispensed on blood agar plates and incubated for 48 hours at 37° C. Colony forming units (CFUs) were counted at the end of the incubation period. Experiments were run in triplicate and repeated using blood from 5 different donors.

With SYSMEHFRWGKPV [α-MSH (1-13)] the “reduction of production of IL-6” value [1] was 31%, the “mRNA for TNF-α and iNOS (Northern blot)” value [2] was “inhibition of mRNA transaction for TNF-α and iNOS” and the “killing of C. albicans by human neutrophils” value [3] was “enhanced the killing”.

Source: patent US6969590B2, “Use of a polypeptide for treatment of pruritus in animals” (Zengen, Inc., priority 2001, dated 2005)
